Measured values: patent US8563549B2, “Pyrimidine derivatives used as PI-3 kinase inhibitors” (Novartis AG, priority 2006, dated 2013)

Tests used:
[1] = test system: Akt^Ser473 phosphorylation; assay: In vivo target modulation (PK/PD) in A2780 xenograft tumors (Biological Method 3); parameters: species or system nu/nu mice
Source text: A2780 ovarian cancer cells obtained from George Coukos (Fox Chase Cancer Center, University of Pennsylvania, Philadelphia, Pa.) were maintained in DMEM (Invitrogen, Inc.) supplemented with 10% heat-inactivated fetal bovine serum with 1% glutamine. Cells were propagated as recommended by the Dr. Coukos and colleagues. Female nu/nu mice (8-12 weeks old, 20-25 g, Charles River) were used for all in vivo pharmacology studies. The mice were housed and maintained in accordance with state and federal guidelines for the humane treatment and care of laboratory animals and received food and water ad libitum. Cancer cells were harvested from mid-log phase cultures using trypsin-EDTA (Invitrogen, Inc.). […] Tumor volumes were determined by using StudyDirector software.
For PK/PD dose-dependent studies, tumor-bearing mice were given a single oral dose of compound at different concentrations (10, 30, 60 and 100 mg/kg or vehicle) and tumors were resected at 10 hr or 24 hr after dosing. […] Supernatants were taken after centrifugation of tumor lysates at 300×g for 10 min at 4° C. and the protein concentration in each supernatant was determined by BCA (BioRad). […] The density of the positive band on the X-ray film was scanned and the target modulation for each compound was expressed as percentage inhibition by each compound compared to vehicle treatment. […]

[2] = test system: A2780 tumor xenograft; assay: Efficacy study in A2780 ovarian cancer xenograft model (Biological Method 3); type: in vivo, nu/nu mice; conditions: oral
Source text: A2780 ovarian cancer cells obtained from George Coukos (Fox Chase Cancer Center, University of Pennsylvania, Philadelphia, Pa.) were maintained in DMEM (Invitrogen, Inc.) supplemented with 10% heat-inactivated fetal bovine serum with 1% glutamine. Cells were propagated as recommended by the Dr. Coukos and colleagues. Female nu/nu mice (8-12 weeks old, 20-25 g, Charles River) were used for all in vivo pharmacology studies. The mice were housed and maintained in accordance with state and federal guidelines for the humane treatment and care of laboratory animals and received food and water ad libitum. Cancer cells were harvested from mid-log phase cultures using trypsin-EDTA (Invitrogen, Inc.). Five million cells were subcutaneously injected into the right flank of each mouse. Compound treatment was initiated when tumor size reached to 300-400 mm^3 for PK/PD studies and 200-300 mm^3 for efficacy studies. All compound treatment was administrated orally. Tumor volumes were determined by using StudyDirector software.
For efficacy studies, A2780 cancer cells (5×10^6 in 100 μl of DMEM culture medium) were injected subcutaneously into the right flank of each nu/nu mouse. […] Tumor growth and animal body weight was measured twice weekly with daily clinical observation to monitor potential toxicities related to the treatment. […]

With Nc1cc(C(F)(F)F)c(-c2cc(N3CCOCC3)nc(N3CCOCC3)n2)cn1 [Compound 10] the “Duration of inhibition of Akt^Ser473 (>50% inhibition)” value [1] was greater than 10 h, the Antitumor activity ([2]; b.i.d., 30 mg/kg (FIG. 5)) was “significant antitumor activity” and the Tumor growth inhibition ([2]; daily, 100 mg/kg) was “tumor growth stasis”.

With Nc1ncc(-c2cc(OC3CCOCC3)nc(N3CCOCC3)n2)c(C(F)(F)F)n1 [Compound 66] the “Duration of inhibition of Akt^Ser473 (>50% inhibition)” value [1] was greater than 10 h.
